# Assay results reported in the NIST ThermoML archive (doi:10.1021/acs.jced.6b00803).
# Numbers after ± are expanded uncertainties.
# Details: 298.15 K; 101.33 kPa; Liquid; Vibrating tube method
row,SMILES,mass density
1,CCCCCCCCCCCC [dodecane],745.508 ± 3 kg/m3
2,CC(=O)OCc1ccccc1 [benzyl ethanoate],1051.1 ± 4.2 kg/m3
3,CCCCCCCCCCCCCCCC [hexadecane],770.221 ± 3.1 kg/m3
4,CCCCCCCCCCCCCC [tetradecane],759.275 ± 3 kg/m3
5,CC(=O)CCc1ccccc1 [4-phenyl-2-butanone],984.742 ± 4 kg/m3
